Here are results for one molecule from PMC4020900 (International Journal of Nanomedicine, 2014).

Series [1] concerns Caco-2 cells. Description: SRB cytotoxicity assay. The format is cell-based. The note with it: Homo sapiens, Caco-2, 24 h, read-out: IC50 (SRB assay). Background: In SRB staining, fixed cells bind dye roughly in proportion to their protein.
The conditions of series [2]: stated in the introduction, method and reference not given; cited from earlier work.
Series [3] is described as follows: Stability in pH 7.4 HBSS buffer with ascorbic acid. It counts as physicochemical. The note with it: 100 μg/mL, 10 mM ascorbic acid, 37°C, 6 hours.
Series [4] deals with Caco-2 cells. The series is described as follows: Cellular uptake of FITC-conjugated drugs and their niosomes by Caco-2 cells. The format is in vitro ADME, human. The note with it: 100 μg/mL, 37°C, 6 hours incubation, n=3.
In series [5] the test system is Caco-2 cells. The series is described as follows: Stability and metabolism on incubation with Caco-2 cells. The format is in vitro ADME, human. The note with it: 100 μg/mL, incubated with Caco-2 cells, pH 7.4 HBSS, 10 mM ascorbic acid, 37°C, 6 hours.

Broadly, the IC50 is the point on the concentration scale where inhibition reaches its midpoint.

SMILES strings stand for the structures. Converted amounts (≈) assume the structure as drawn.

In the case of `O=C(O[C@@H]1Cc2c(O)cc(O)cc2O[C@@H]1c1cc(O)c(O)c(O)c1)c1cc(O)c(O)c(O)c1` [EGCG, (−)-epigallocatechin gallate], the half-maximal inhibitory concentration (IC50) in the series with Caco-2 cells [1] is 125 ± 3.3 µg/mL (≈ 272 µM). Further, the “Octanol/buffer partition coefficient P” value in series [2] was 0.86±0.03. In addition, the “Drug present and unchanged” value in series [3] worked out at 86.2%. Moreover, the “Uptake ± SD” value with Caco-2 cells [4] came out at 0.90±0.14 μg/mg protein. The same molecule returned a Decrease of drug with Caco-2 cells [5] of 13.0%.
